In US11413264B2, “Carbamoyl phenylalaninol analogs and uses thereof” (Jazz Pharmaceuticals Ireland Limited, priority 2017, dated 2022):
Structures can show the parent of a compound that is named as a salt. Where two headings read alike, the source gives them in different places.

How the values were obtained:
[1] = molecular target: T1, vesicular monoamine transporter (VMAT2) (Rattus norvegicus, UniProt Q01827); experiment: Competitive radioligand binding assay, VMAT2 transporter (antagonist radioligand); conditions: compound at 10 μM
T1 construct: Rat brain; from tissue; host or cells: rat brain minus cerebellum, membrane fraction
T1 sequence (Q01827 whole entry): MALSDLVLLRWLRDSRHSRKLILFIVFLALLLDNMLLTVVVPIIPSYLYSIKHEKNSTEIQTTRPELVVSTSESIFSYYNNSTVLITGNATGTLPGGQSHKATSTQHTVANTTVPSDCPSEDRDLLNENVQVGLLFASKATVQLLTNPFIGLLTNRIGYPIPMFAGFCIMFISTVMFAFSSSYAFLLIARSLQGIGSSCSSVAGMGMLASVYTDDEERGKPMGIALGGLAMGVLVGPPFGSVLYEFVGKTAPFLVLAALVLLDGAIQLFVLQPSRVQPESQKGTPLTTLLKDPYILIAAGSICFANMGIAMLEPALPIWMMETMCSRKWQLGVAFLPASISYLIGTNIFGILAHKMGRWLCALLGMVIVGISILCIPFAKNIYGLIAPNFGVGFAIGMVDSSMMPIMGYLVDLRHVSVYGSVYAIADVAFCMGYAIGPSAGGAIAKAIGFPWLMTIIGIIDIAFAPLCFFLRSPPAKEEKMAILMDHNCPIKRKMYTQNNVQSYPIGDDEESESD
Procedure: (§1) Compounds of the invention were tested for pharmacological activity in comparison to APC. Eight binding assays were carried out to provide a binding profile for each compound, including binding to dopamine transporter (DAT), norepinephrine transporter (NET), serotonin (5-HT) transporter (SERT), alpha2A adrenergic receptor (Alpha2A), alpha2C adrenergic receptor (Alpha2C), D2S dopamine receptor (D2S), D2L dopamine receptor (D2L), and vesicular monoamine transporter (VMAT2). Competitive binding assays using a radiolabeled ligand were carried out with each compound at 10 μM. The radioligand for each target was as follows: DAT—BTCP, NET—nisoxetine, SERT—imipramine, Alpha2A—yohimbine, Alpha2C—yohimbine, D2S—7-OH-DPAT, D2L—methylspiperone, VMAT2—tetrabenazine. The source of the receptors and transporters were prepared cell membrane fractions.

[2] = molecular target: T2, alpha2A adrenergic receptor (Alpha2A) (Homo sapiens, UniProt P08913); experiment: Competitive radioligand binding assay, α2A (antagonist radioligand); conditions: compound at 10 μM
T2 construct: expressed in transfected cells; host or cells: CHO cells (membrane fractions)
T2 sequence (P08913 1-465): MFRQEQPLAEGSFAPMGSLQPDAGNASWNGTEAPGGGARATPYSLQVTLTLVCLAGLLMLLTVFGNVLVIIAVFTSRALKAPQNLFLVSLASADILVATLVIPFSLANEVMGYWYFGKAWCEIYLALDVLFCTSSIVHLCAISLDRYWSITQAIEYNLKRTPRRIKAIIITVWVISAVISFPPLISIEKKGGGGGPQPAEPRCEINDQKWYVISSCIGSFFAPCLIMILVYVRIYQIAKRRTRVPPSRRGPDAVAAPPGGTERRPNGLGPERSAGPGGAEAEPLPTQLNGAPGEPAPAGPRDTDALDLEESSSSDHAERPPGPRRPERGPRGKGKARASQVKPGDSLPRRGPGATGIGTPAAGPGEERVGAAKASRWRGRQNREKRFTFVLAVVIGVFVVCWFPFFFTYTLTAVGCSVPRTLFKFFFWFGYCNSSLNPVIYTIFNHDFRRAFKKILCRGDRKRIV
Procedure: as §1

[3] = molecular target: T3, alpha2C adrenergic receptor (Alpha2C) (Homo sapiens, UniProt P18825); experiment: Competitive radioligand binding assay, α2C (antagonist radioligand); conditions: compound at 10 μM
T3 construct: expressed in transfected cells; host or cells: CHO cells (membrane fractions)
T3 sequence (P18825 1-462): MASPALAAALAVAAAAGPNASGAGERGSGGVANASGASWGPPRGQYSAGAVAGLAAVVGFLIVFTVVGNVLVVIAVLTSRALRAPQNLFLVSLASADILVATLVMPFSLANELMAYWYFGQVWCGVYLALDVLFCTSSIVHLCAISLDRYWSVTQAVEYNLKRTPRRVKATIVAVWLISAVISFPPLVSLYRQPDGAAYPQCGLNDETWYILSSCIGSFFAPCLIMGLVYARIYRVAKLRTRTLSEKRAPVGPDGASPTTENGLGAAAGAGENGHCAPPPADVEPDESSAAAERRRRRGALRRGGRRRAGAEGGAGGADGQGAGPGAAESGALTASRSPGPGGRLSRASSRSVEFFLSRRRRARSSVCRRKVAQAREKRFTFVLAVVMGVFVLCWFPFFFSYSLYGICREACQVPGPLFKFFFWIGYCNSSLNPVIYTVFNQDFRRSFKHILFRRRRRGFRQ
Procedure: as §1

[4] = molecular target: T4, dopamine transporter (DAT) (Homo sapiens, UniProt Q01959); experiment: Competitive radioligand binding assay, dopamine transporter (antagonist radioligand); conditions: compound at 10 μM; for binding to the dopamine transporter (in words): summary
T4 construct: expressed in transfected cells; host or cells: CHO cells (membrane fractions)
T4 sequence (Q01959 whole entry): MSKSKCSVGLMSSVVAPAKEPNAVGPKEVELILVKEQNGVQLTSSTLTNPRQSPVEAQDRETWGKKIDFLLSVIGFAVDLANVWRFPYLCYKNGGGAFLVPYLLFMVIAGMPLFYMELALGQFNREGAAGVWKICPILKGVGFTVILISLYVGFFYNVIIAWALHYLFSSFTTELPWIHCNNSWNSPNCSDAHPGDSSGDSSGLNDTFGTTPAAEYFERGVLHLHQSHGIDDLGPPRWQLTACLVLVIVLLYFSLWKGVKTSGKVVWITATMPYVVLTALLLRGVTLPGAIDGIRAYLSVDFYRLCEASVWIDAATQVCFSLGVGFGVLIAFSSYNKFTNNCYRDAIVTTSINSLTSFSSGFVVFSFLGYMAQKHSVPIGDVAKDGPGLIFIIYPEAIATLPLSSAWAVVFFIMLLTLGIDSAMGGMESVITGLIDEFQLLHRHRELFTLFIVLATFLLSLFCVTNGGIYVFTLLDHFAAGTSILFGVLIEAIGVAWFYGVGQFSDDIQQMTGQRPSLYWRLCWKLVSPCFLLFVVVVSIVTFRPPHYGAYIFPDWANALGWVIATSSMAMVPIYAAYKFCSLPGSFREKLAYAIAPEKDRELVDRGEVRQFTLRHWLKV
Procedure: as §1

[5] = molecular target: T5, D2L dopamine receptor (D2L) (Homo sapiens, UniProt P14416); experiment: Competitive radioligand binding assay, D2L (antagonist radioligand); conditions: compound at 10 μM
T5 construct: expressed in transfected cells; host or cells: HEK-293 cells (membrane fractions)
T5 sequence (P14416 whole entry): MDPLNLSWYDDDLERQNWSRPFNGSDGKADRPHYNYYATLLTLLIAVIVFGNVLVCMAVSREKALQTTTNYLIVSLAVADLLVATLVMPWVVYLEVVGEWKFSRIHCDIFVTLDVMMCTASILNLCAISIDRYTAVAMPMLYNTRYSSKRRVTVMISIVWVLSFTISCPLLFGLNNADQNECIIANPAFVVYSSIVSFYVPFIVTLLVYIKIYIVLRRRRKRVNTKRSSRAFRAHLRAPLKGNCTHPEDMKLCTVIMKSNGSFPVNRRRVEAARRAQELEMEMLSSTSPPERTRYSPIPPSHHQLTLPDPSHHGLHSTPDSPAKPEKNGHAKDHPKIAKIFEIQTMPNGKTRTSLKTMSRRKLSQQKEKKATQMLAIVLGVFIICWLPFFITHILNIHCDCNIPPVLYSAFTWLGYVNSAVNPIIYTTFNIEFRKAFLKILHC
Procedure: as §1

[6] = molecular target: T6, D2S dopamine receptor (D2S) (Homo sapiens, UniProt P14416); experiment: Competitive radioligand binding assay, D2S (agonist radioligand); conditions: compound at 10 μM
T6 construct: expressed in transfected cells; host or cells: HEK-293 cells (membrane fractions)
T6 sequence (P14416 1-414 isoform P14416-2): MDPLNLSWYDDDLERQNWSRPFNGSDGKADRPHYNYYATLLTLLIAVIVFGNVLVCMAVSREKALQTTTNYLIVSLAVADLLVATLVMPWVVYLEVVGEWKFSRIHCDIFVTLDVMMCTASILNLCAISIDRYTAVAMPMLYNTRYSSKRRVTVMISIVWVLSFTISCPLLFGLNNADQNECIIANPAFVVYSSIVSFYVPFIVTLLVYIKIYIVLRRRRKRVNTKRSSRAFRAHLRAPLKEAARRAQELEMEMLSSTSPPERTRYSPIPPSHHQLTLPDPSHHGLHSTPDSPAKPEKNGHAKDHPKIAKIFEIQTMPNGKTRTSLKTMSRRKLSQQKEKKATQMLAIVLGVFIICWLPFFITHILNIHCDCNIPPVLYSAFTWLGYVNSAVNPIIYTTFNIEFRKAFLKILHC
Procedure: as §1

[7] = molecular target: T7, serotonin (5-HT) transporter (SERT) (Homo sapiens, UniProt P31645); experiment: Competitive radioligand binding assay, 5-HT transporter (antagonist radioligand); conditions: compound at 10 μM
T7 construct: expressed in transfected cells; host or cells: CHO cells (membrane fractions)
T7 sequence (P31645 whole entry): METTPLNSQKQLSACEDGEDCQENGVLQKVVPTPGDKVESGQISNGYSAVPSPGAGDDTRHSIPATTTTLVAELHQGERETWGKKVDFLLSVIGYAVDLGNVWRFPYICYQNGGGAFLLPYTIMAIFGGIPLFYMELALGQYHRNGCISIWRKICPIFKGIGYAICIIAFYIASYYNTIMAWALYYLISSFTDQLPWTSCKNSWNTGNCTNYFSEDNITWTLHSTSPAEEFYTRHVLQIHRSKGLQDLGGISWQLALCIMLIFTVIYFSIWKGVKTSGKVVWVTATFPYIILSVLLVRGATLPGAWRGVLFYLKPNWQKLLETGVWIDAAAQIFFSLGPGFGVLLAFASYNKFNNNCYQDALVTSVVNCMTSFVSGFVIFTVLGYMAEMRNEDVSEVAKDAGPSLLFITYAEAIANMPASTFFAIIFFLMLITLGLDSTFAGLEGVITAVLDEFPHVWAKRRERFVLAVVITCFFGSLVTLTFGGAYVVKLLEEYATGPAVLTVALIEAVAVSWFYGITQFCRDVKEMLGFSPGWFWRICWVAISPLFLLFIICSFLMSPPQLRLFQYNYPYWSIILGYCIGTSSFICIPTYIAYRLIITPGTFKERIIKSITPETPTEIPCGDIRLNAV
Procedure: as §1

[8] = molecular target: T8, norepinephrine transporter (NET) (Homo sapiens, UniProt P23975); experiment: Competitive radioligand binding assay, norepinephrine transporter (antagonist radioligand); conditions: compound at 10 μM; for binding to the norepinephrine transporter (in words): summary
T8 construct: expressed in transfected cells; host or cells: CHO cells (membrane fractions)
T8 sequence (P23975 whole entry): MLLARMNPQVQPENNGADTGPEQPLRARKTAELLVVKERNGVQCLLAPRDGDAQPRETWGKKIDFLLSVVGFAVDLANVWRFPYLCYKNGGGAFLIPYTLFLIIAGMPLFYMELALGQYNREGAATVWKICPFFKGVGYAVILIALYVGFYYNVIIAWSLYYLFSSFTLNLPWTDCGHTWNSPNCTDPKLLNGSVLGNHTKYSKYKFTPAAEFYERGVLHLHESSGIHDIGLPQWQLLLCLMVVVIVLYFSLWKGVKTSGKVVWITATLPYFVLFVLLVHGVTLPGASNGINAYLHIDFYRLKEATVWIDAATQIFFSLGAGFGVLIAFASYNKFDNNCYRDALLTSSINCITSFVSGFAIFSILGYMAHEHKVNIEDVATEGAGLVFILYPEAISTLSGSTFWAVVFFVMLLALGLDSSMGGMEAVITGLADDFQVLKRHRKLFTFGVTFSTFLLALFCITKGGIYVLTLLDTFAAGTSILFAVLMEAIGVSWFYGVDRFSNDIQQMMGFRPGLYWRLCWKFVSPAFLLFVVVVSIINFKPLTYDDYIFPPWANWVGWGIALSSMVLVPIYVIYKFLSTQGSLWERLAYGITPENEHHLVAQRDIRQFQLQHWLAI
Procedure: as §1

[9] = VMAT2 transporter, single value, read-out: % inhibition of control specific binding, 1st
[10] = [3H]dihydrotetrabenazine 10 nM, rat brain (minus cerebellum), read-out: % Inhibition of Binding at Each Transporter or Receptor Target, VMAT2
[11] = 1st individual result, read-out: % inhibition of control specific binding, 1st
[12] = 2nd individual result, read-out: % inhibition of control specific binding, 2nd
[13] = mean, read-out: % inhibition of control specific binding, Mean
[14] = Dopamine transporter, 1st individual result, read-out: % inhibition of control specific binding, 1st
[15] = Dopamine transporter, 2nd individual result, read-out: % inhibition of control specific binding, 2nd
[16] = Dopamine transporter, mean, read-out: % inhibition of control specific binding, Mean
[17] = [3H]BTCP 4 nM, human recombinant (CHO cells), read-out: % Inhibition of Binding at Each Transporter or Receptor Target, DAT
[18] = D2L, 1st individual result, read-out: % inhibition of control specific binding, 1st
[19] = D2L, 2nd individual result, read-out: % inhibition of control specific binding, 2nd
[20] = D2L, mean, read-out: % inhibition of control specific binding, Mean
[21] = [3H]methyl-spiperone 0.3 nM, human recombinant (HEK-293 cells), read-out: % Inhibition of Binding at Each Transporter or Receptor Target, D2L
[22] = D2S, 1st individual result, read-out: % inhibition of control specific binding, 1st
[23] = D2S, 2nd individual result, read-out: % inhibition of control specific binding, 2nd
[24] = D2S, mean, read-out: % inhibition of control specific binding, Mean
[25] = [3H]7-OH-DPAT 1 nM, human recombinant (HEK-293 cells), read-out: % Inhibition of Binding at Each Transporter or Receptor Target, D2S
[26] = 5-HT transporter, 1st individual result, read-out: % inhibition of control specific binding, 1st
[27] = 5-HT transporter, 2nd individual result, read-out: % inhibition of control specific binding, 2nd
[28] = 5-HT transporter, mean, read-out: % inhibition of control specific binding, Mean
[29] = [3H]imipramine 2 nM, human recombinant (CHO cells), read-out: % Inhibition of Binding at Each Transporter or Receptor Target, SERT
[30] = Norepinephrine transporter, 1st individual result, read-out: % inhibition of control specific binding, 1st
[31] = Norepinephrine transporter, 2nd individual result, read-out: % inhibition of control specific binding, 2nd
[32] = Norepinephrine transporter, mean, read-out: % inhibition of control specific binding, Mean
[33] = [3H]nisoxetine 1 nM, human recombinant (CHO cells), read-out: % Inhibition of Binding at Each Transporter or Receptor Target, NET

Row | Structure (SMILES) | inhibition at 10 µM [1, 9] [%] | inhibition at 10 µM [1, 10] [%] | inhibition at 10 µM [2, 11] [%] | inhibition at 10 µM [2, 12] [%] | inhibition at 10 µM [2, 13] [%] | inhibition at 10 µM [3, 11] [%] | inhibition at 10 µM [3, 12] [%] | inhibition at 10 µM [3, 13] [%] | inhibition at 10 µM [4, 14] [%] | inhibition at 10 µM [4, 15] [%] | inhibition at 10 µM [4, 16] [%] | inhibition at 10 µM [4, 17] [%] | binding to the dopamine transporter (in words) [4] | inhibition at 10 µM [5, 18] [%] | inhibition at 10 µM [5, 19] [%] | inhibition at 10 µM [5, 20] [%] | inhibition at 10 µM [5, 21] [%] | inhibition at 10 µM [6, 22] [%] | inhibition at 10 µM [6, 23] [%] | inhibition at 10 µM [6, 24] [%] | further results
1 | N[C@@H](COS(N)(=O)=O)Cc1ccccc1 [Compound 9, (R)-2-Amino-3-phenylpropyl sulfamate hydrochloride] | 16 | 16 | 65.7 | 70.8 | 68.3 | 65.8 | 60.9 | 63.4 | 26.4 | 44 | 35.2 | 35.2 | substantial | -2.2 | -6.8 | -4.5 | -4.5 | 45.3 | 33.7 | 39.5 | inhibition at 10 µM [6, 25]: 39.5%; inhibition at 10 µM [7, 26]: -1.7%; inhibition at 10 µM [7, 27]: -3.7%; inhibition at 10 µM [7, 28]: -2.7%; inhibition at 10 µM [7, 29]: -2.7%; inhibition at 10 µM [8, 30]: -3.7%; inhibition at 10 µM [8, 31]: 14%; inhibition at 10 µM [8, 32]: 5.1%; inhibition at 10 µM [8, 33]: 5.1%; binding to the norepinephrine transporter (in words) [8]: substantial binding
2 | NC(=S)OC[C@H](N)Cc1ccccc1 [Compound 8, (R)—O-(2-Amino-3-phenylpropyl) carbamothioate dihydrochloride] | 6 | 6 | 60 | 61.3 | 60.6 | 50.6 | 47 | 48.8 | 67.9 | 95.4 | 81.6 | 81.6 | substantial | -0.5 | 2.7 | 1.1 | 1.1 | 33.5 | 21.4 | 27.4 | inhibition at 10 µM [6, 25]: 27.4%; inhibition at 10 µM [7, 26]: -1.9%; inhibition at 10 µM [7, 27]: -2.4%; inhibition at 10 µM [7, 28]: -2.1%; inhibition at 10 µM [7, 29]: -2.1%; inhibition at 10 µM [8, 30]: 29.5%; inhibition at 10 µM [8, 31]: 46.1%; inhibition at 10 µM [8, 32]: 37.8%; inhibition at 10 µM [8, 33]: 37.8%; binding to the norepinephrine transporter (in words) [8]: substantial binding
3 | NC(=O)NC[C@H](N)Cc1ccccc1 [Compound 3, (R)-1-(2-Amino-3-phenylpropyl)urea hydrochloride] | 0 | 0 | 1.7 | 7.8 | 4.8 | 8.6 | 22.6 | 15.6 | 86.8 | 90.5 | 88.6 | 88.6 | substantial binding | -6.7 | 7.6 | 0.5 | 0.5 | -1.6 | 0.2 | -0.7 | inhibition at 10 µM [6, 25]: -0.7%; inhibition at 10 µM [7, 26]: -2.4%; inhibition at 10 µM [7, 27]: -0.4%; inhibition at 10 µM [7, 28]: -1.4%; inhibition at 10 µM [7, 29]: -1.4%; inhibition at 10 µM [8, 30]: 42.6%; inhibition at 10 µM [8, 31]: 23%; inhibition at 10 µM [8, 32]: 32.8%; inhibition at 10 µM [8, 33]: 32.8%
4 | NC(=O)SC[C@H](N)Cc1ccccc1 [Compound 10, (R)—S-(2-Amino-3-phenylpropyl) carbamothioate hydrochloride] | 5 | 5 | 64.4 | 46.1 | 55.3 | 89.3 | 92.4 | 90.9 | 85.3 | 87.3 | 86.3 | 86.3 | substantial | 33.7 | 35.6 | 34.7 | 34.7 | 89.5 | 90.5 | 90 | inhibition at 10 µM [6, 25]: 90%; inhibition at 10 µM [7, 26]: 21.7%; inhibition at 10 µM [7, 27]: 22%; inhibition at 10 µM [7, 28]: 21.9%; inhibition at 10 µM [7, 29]: 21.9%; inhibition at 10 µM [8, 30]: 91.7%; inhibition at 10 µM [8, 31]: 91.7%; inhibition at 10 µM [8, 32]: 91.7%; inhibition at 10 µM [8, 33]: 91.7%; binding to the norepinephrine transporter (in words) [8]: substantial binding
